Earlier results as cited in EP3738589B1, “A COMPOSITION FOR THE PREVENTION AND/OR TREATMENT OF OROPHARYNGEAL MUCOSA DISEASES” (Neilos S.r.l., priority 2019, dated 2020).

Experiments:
[1] = system: patients suffering from BPCO; conditions: patients suffering from BPCO treated with NAC; from 1.71 times a year
[2] = system: oral mucositis caused by chemotherapy; conditions: hematopoietic SCT
oral mucositis = conditions: patients with cancer

Structure (SMILES) | reduction in exacerbations [1] [times a year] | incidence and grade of oral mucositis [2] | days of discomfort are reduced by (BPCO; BPCO) [days/month] | exacerbations of the disease are reduced by (BPCO; BPCO) [exacerbation/month] | reduce hospitalizations due to BPCO by (BPCO; BPCO) [%] | increase in FEV1 (BPCO; from 25%, after a short 4-week-therapy) [%] | severity of oral mucositis (oral mucositis)
CC(=O)N[C@@H](CS)C(=O)O [NAC, N-acetyl-L-cysteine] | 0.96 | reduces the incidence and grade of oral mucositis | 0.56 | 0.07 | 30 | 30 | 
O=C1O[C@H]([C@@H](O)CO)C(O)=C1O [vitamin C, ascorbic acid] |  |  |  |  |  |  | alleviates the severity of oral mucositis
